{"source": "ChEMBL document CHEMBL1155649", "about": "“A new inhibitor of 5'-hydroxyaverantin dehydrogenase, an enzyme involved in aflatoxin biosynthesis, from Trichoderma hamatum” (J Nat Prod, 2000)", "key": {"[1]": {"assay": "Inhibition of Aspergillus parasiticus NIAH-26 5'-hydroxyaverantin dehydrogenase"}, "[2]": {"assay": "Inhibition of malate dehydrogenase at 3 mM"}}, "note": "The source made the active and inactive calls. The rule behind the calls is not given here.", "data": [{"smiles": "CO[C@H]1[C@@H](O)[C@@]2(C)c3ccc4c(c3-c3c2c(coc3=O)[C@@H]1O)CCC4=O", "note": "(relative stereo)", "values": [{"measurement": "IC50", "setting": "[1]", "result": 250, "unit": "µM"}, {"measurement": "Activity", "setting": "[2]", "result": "inactive"}]}]}
